# ChEMBL document CHEMBL3045943, “Novel N-aryl(alkaryl)-2-[(3-R-2-oxo-2H-[1,2,4]triazino[2,3-c]quinazoline-6-yl)thio]acetamides: synthesis, cytotoxicity, anticancer activity, COMPARE analysis and docking” (2013)
# Columns and labels:
# Format in all cases: functional
# Malme-3M = experiment: Cytotoxicity against Homo sapiens (human) MALME-3M cells assessed as cell growth at 10 uM after 48 hr by SRB assay relative to control; conditions: read-out: Activity
# HOP-92 = experiment: Cytotoxicity against Homo sapiens (human) HOP92 cells assessed as cell growth at 10 uM after 48 hr by SRB assay relative to control; conditions: HOP-92, 48 h, read-out: Activity
# [1] = system: Photobacterium leiognathi; experiment: Growth inhibition of Photobacterium leiognathi Sh1 assessed as bio-luminescence at 0.1 mg/ml after 16 to 18 hr by chronic action test relative to control; parameters: scale not given: the % may be the effect or the level left
# OVCAR-8 = experiment: Cytotoxicity against Homo sapiens (human) OVCAR8 cells assessed as cell growth at 10 uM after 48 hr by SRB assay relative to control; conditions: OVCAR-8, 48 h, read-out: Activity
# UO-31 = experiment: Cytotoxicity against Homo sapiens (human) UO31 cells assessed as cell growth at 10 uM after 48 hr by SRB assay relative to control; conditions: UO-31, 48 h, read-out: Activity
# U-251 [2] = experiment: Cytotoxicity against Homo sapiens (human) U251 cells assessed as cell growth at 10 uM after 48 hr by SRB assay relative to control; conditions: U-251, 48 h, read-out: Activity
# [3] = system: Photobacterium leiognathi; experiment: Growth inhibition of Photobacterium leiognathi Sh1 assessed as bio-luminescence at 0.1 mg/ml after 10 min by acute action test relative to control; parameters: scale not given: the % may be the effect or the level left
# SK-MEL-5 = experiment: Cytotoxicity against Homo sapiens (human) SK-MEL-5 cells assessed as cell growth at 10 uM after 48 hr by SRB assay relative to control; conditions: SK-MEL-5, 48 h, read-out: Activity
# [4] = system: Photobacterium leiognathi; experiment: Growth inhibition of Photobacterium leiognathi Sh1 assessed as bio-luminescence at 0.025 mg/ml after 10 min by acute action test relative to control; parameters: scale not given: the % may be the effect or the level left
# [5] = system: Photobacterium leiognathi; experiment: Growth inhibition of Photobacterium leiognathi Sh1 assessed as bio-luminescence at 0.025 mg/ml after 16 to 18 hr by chronic action test relative to control; parameters: scale not given: the % may be the effect or the level left
# BT-549 = experiment: Cytotoxicity against Homo sapiens (human) BT549 cells assessed as cell growth at 10 uM after 48 hr by SRB assay relative to control; conditions: BT-549, 48 h, read-out: Activity
# MDA-MB-435 = experiment: Cytotoxicity against Homo sapiens (human) MDA-MB-435 cells assessed as cell growth at 10 uM after 48 hr by SRB assay relative to control; conditions: MDA-MB-435, 48 h, read-out: Activity
# ACHN = experiment: Cytotoxicity against Homo sapiens (human) ACHN cells assessed as cell growth at 10 uM after 48 hr by SRB assay relative to control; conditions: read-out: Activity
# SNB-75 [6] = experiment: Cytotoxicity against Homo sapiens (human) SNB75 cells assessed as cell growth at 10 uM after 48 hr by SRB assay relative to control; conditions: SNB-75, 48 h, read-out: Activity
# [7] = Cytotoxicity against Homo sapiens (human) NCI-ADR-RES cells assessed as cell growth at 10 uM after 48 hr by SRB assay relative to control; conditions: read-out: Activity
# 786-0 = experiment: Cytotoxicity against Homo sapiens (human) 786-0 cells assessed as cell growth at 10 uM after 48 hr by SRB assay relative to control; conditions: 786-0, 48 h, read-out: Activity
# [8] = system: Photobacterium leiognathi; experiment: Growth inhibition of Photobacterium leiognathi Sh1 assessed as bio-luminescence at 0.25 mg/ml after 10 min by acute action test relative to control; parameters: scale not given: the % may be the effect or the level left
# SN12C = experiment: Cytotoxicity against Homo sapiens (human) SN12C cells assessed as cell growth at 10 uM after 48 hr by SRB assay relative to control; conditions: read-out: Activity
# HT-29 = experiment: Cytotoxicity against Homo sapiens (human) HT-29 cells assessed as cell growth at 10 uM after 48 hr by SRB assay relative to control; conditions: HT-29, 48 h, read-out: Activity
# A498 [9] = experiment: Cytotoxicity against Homo sapiens (human) A498 cells assessed as cell growth at 10 uM after 48 hr by SRB assay relative to control; conditions: A498, 48 h, read-out: Activity
# SF-539 = experiment: Cytotoxicity against Homo sapiens (human) SF539 cells assessed as cell growth at 10 uM after 48 hr by SRB assay relative to control; conditions: SF-539, 48 h, read-out: Activity
# UACC-257 = experiment: Cytotoxicity against Homo sapiens (human) UACC257 cells assessed as cell growth at 10 uM after 48 hr by SRB assay relative to control; conditions: UACC-257, 48 h, read-out: Activity
# RXF 393 = experiment: Cytotoxicity against Homo sapiens (human) RXF393 cells assessed as cell growth at 10 uM after 48 hr by SRB assay relative to control; conditions: RXF 393, 48 h, read-out: Activity
# Hs-578T = experiment: Cytotoxicity against Homo sapiens (human) Hs 578T cells assessed as cell growth at 10 uM after 48 hr by SRB assay relative to control; conditions: read-out: Activity
# HCT-116 = experiment: Cytotoxicity against Homo sapiens (human) HCT116 cells assessed as cell growth at 10 uM after 48 hr by SRB assay relative to control; conditions: HCT-116, 48 h, read-out: Activity
# SR = experiment: Cytotoxicity against Homo sapiens (human) SR cells assessed as cell growth at 10 uM after 48 hr by SRB assay relative to control; conditions: read-out: Activity
# MCF7 = experiment: Cytotoxicity against Homo sapiens (human) MCF7 cells assessed as cell growth at 10 uM after 48 hr by SRB assay relative to control; conditions: MCF7, 48 h, read-out: Activity
# [10] = system: Photobacterium leiognathi; experiment: Growth inhibition of Photobacterium leiognathi Sh1 assessed as bio-luminescence at 0.25 mg/ml after 16 to 18 hr by chronic action test relative to control; parameters: scale not given: the % may be the effect or the level left
# LOX IMVI = experiment: Cytotoxicity against Homo sapiens (human) LOXIMVI cells assessed as cell growth at 10 uM after 48 hr by SRB assay relative to control; conditions: read-out: Activity
# NCI-H460 = experiment: Cytotoxicity against Homo sapiens (human) NCI-H460 cells assessed as cell growth at 10 uM after 48 hr by SRB assay relative to control; conditions: NCI-H460, 48 h, read-out: Activity
# MDA-MB-231 [11] = experiment: Cytotoxicity against Homo sapiens (human) MDA-MB-231 cells assessed as cell growth at 10 uM after 48 hr by SRB assay relative to control; conditions: MDA-MB-231, 48 h, read-out: Activity
# PC-3 = experiment: Cytotoxicity against Homo sapiens (human) PC3 cells assessed as cell growth at 10 uM after 48 hr by SRB assay relative to control; conditions: PC-3, 48 h, read-out: Activity
# OVCAR-4 = experiment: Cytotoxicity against Homo sapiens (human) OVCAR4 cells assessed as cell growth at 10 uM after 48 hr by SRB assay relative to control; conditions: OVCAR-4, 48 h, read-out: Activity
# A498 [12] = experiment: Cytotoxicity against Homo sapiens (human) A498 cells after 48 hr by SRB assay; conditions: A498, 48 h
# U-251 [13] = experiment: Cytotoxicity against Homo sapiens (human) U251 cells after 48 hr by SRB assay; conditions: U-251, 48 h
# OVCAR-3 = experiment: Cytotoxicity against Homo sapiens (human) OVCAR3 cells assessed as cell growth at 10 uM after 48 hr by SRB assay relative to control; conditions: OVCAR-3, 48 h, read-out: Activity
# SNB-75 [14] = experiment: Cytotoxicity against Homo sapiens (human) SNB75 cells after 48 hr by SRB assay; conditions: SNB-75, 48 h
# SW-620 = experiment: Cytotoxicity against Homo sapiens (human) SW620 cells assessed as cell growth at 10 uM after 48 hr by SRB assay relative to control; conditions: SW-620, 48 h, read-out: Activity
# HOP-62 = experiment: Cytotoxicity against Homo sapiens (human) HOP62 cells after 48 hr by SRB assay; conditions: HOP-62, 48 h
# NCI-H522 = experiment: Cytotoxicity against Homo sapiens (human) NCI-H522 cells assessed as cell growth at 10 uM after 48 hr by SRB assay relative to control; conditions: NCI-H522, 48 h, read-out: Activity
# MDA-MB-231 [15] = experiment: Cytotoxicity against Homo sapiens (human) MDA-MB-231 cells after 48 hr by SRB assay; conditions: MDA-MB-231, 48 h
# UACC-62 = experiment: Cytotoxicity against Homo sapiens (human) UACC62 cells assessed as cell growth at 10 uM after 48 hr by SRB assay relative to control; conditions: UACC-62, 48 h, read-out: Activity
# A549 = experiment: Cytotoxicity against Homo sapiens (human) A549 cells assessed as cell growth at 10 uM after 48 hr by SRB assay relative to control; conditions: A549, 48 h, read-out: Activity
# TK-10 = experiment: Cytotoxicity against Homo sapiens (human) TK10 cells assessed as cell growth at 10 uM after 48 hr by SRB assay relative to control; conditions: TK-10, 48 h, read-out: Activity
# DU-145 = experiment: Cytotoxicity against Homo sapiens (human) DU145 cells assessed as cell growth at 10 uM after 48 hr by SRB assay relative to control; conditions: DU-145, 48 h, read-out: Activity
# SK-MEL-2 = experiment: Cytotoxicity against Homo sapiens (human) SK-MEL-2 cells assessed as cell growth at 10 uM after 48 hr by SRB assay relative to control; conditions: SK-MEL-2, 48 h, read-out: Activity
# SNB-19 = experiment: Cytotoxicity against Homo sapiens (human) SNB19 cells assessed as cell growth at 10 uM after 48 hr by SRB assay relative to control; conditions: SNB-19, 48 h, read-out: Activity
smiles,measurement,setting,value
Cc1ccc(CNC(=O)CSc2nc3ccccc3c3nc(=O)c(-c4ccccc4)nn23)cc1,growth at 10 µM,Malme-3M,77.2%
same,growth at 10 µM,HOP-92,85.6%
same,Activity,[1],112%
same,growth at 10 µM,OVCAR-8,60.9%
same,growth at 10 µM,UO-31,61.9%
same,growth at 10 µM,U-251 [2],63%
same,Activity,[3],106%
same,growth at 10 µM,SK-MEL-5,81.8%
same,Activity,[4],84.6%
same,Activity,[5],80%
same,growth at 10 µM,BT-549,26.9%
same,growth at 10 µM,MDA-MB-435,67.7%
same,growth at 10 µM,ACHN,85.8%
same,growth at 10 µM,SNB-75 [6],62.5%
same,growth at 10 µM,[7],61.4%
same,growth at 10 µM,786-0,80.2%
same,Activity,[8],145.5%
same,growth at 10 µM,SN12C,78.6%
same,growth at 10 µM,HT-29,78.8%
same,growth at 10 µM,A498 [9],75.5%
same,growth at 10 µM,SF-539,48%
same,growth at 10 µM,UACC-257,71.1%
same,growth at 10 µM,RXF 393,77.2%
same,growth at 10 µM,Hs-578T,62.3%
same,growth at 10 µM,HCT-116,32.5%
same,growth at 10 µM,SR,71.4%
same,growth at 10 µM,MCF7,79.1%
same,Activity,[10],140%
same,growth at 10 µM,LOX IMVI,78.6%
same,growth at 10 µM,NCI-H460,72.1%
same,growth at 10 µM,MDA-MB-231 [11],70.5%
same,growth at 10 µM,PC-3,83%
same,growth at 10 µM,OVCAR-4,74.9%
O=C(CSc1nc2ccccc2c2nc(=O)c(-c3ccccc3)nn12)NCc1ccccc1F,Activity,[1],75%
same,growth at 10 µM,OVCAR-8,36.2%
same,growth at 10 µM,U-251 [2],2.29%
same,Activity,[3],125%
same,GI50,A498 [12],1.29 µM
same,LC50,A498 [12],> 100 µM
same,TGI,A498 [12]; read-out: pTGI (converted),> 100 µM
same,GI50,U-251 [13],2.69 µM
same,LC50,U-251 [13],> 100 µM
same,TGI,U-251 [13]; read-out: pTGI (converted),> 100 µM
same,growth at 10 µM,SK-MEL-5,47.3%
same,Activity,[4],118.8%
same,Activity,[5],90.6%
same,growth at 10 µM,OVCAR-3,9.5%
same,growth at 10 µM,MDA-MB-435,49.6%
same,growth at 10 µM,SNB-75 [6],15.8%
same,growth at 10 µM,[7],38.8%
same,growth at 10 µM,786-0,16.5%
same,GI50,SNB-75 [14],1.82 µM
same,LC50,SNB-75 [14],> 100 µM
same,TGI,SNB-75 [14]; read-out: pTGI (converted),> 100 µM
same,growth at 10 µM,SW-620,31%
same,GI50,HOP-62,2.82 µM
same,LC50,HOP-62,> 100 µM
same,TGI,HOP-62; read-out: pTGI (converted),> 100 µM
same,Activity,[8],100%
same,growth at 10 µM,NCI-H522,34.5%
same,growth at 10 µM,SF-539,20.9%
same,GI50,MDA-MB-231 [15],2.69 µM
same,CC50,MDA-MB-231 [15]; read-out: pLC50 (the source's name) (converted),> 100 µM
same,TGI,MDA-MB-231 [15]; read-out: pTGI,> 100 µM
same,growth at 10 µM,UACC-62,41.2%
same,growth at 10 µM,RXF 393,42.3%
same,growth at 10 µM,A549,26%
same,growth at 10 µM,HCT-116,34.5%
same,growth at 10 µM,MCF7,38.2%
same,Activity,[10],54.5%
same,growth at 10 µM,LOX IMVI,50.5%
same,growth at 10 µM,TK-10,46.3%
same,growth at 10 µM,NCI-H460,5.5%
same,growth at 10 µM,DU-145,35.9%
same,growth at 10 µM,SK-MEL-2,50.3%
same,growth at 10 µM,MDA-MB-231 [11],48.9%
same,growth at 10 µM,OVCAR-4,-39.5%
COc1ccc(-c2nn3c(SCC(=O)Nc4ccc(C)cc4)nc4ccccc4c3nc2=O)cc1,Activity,[1],76.8%
same,growth at 10 µM,U-251 [2],24.4%
same,Activity,[3],120%
same,growth at 10 µM,SNB-19,59%
same,Activity,[4],112.5%
same,Activity,[5],69.8%
same,growth at 10 µM,SNB-75 [6],55.9%
same,Activity,[8],146.7%
same,Activity,[10],27.3%
